Patent US4443436A, “C-20-Modified macrolide derivatives of the macrolide antibiotics tylosin, desmycosin, macrocin, and lactenocin” (Eli Lilly and Company, priority 1982, dated 1984)
Values after ≈ are worked out from the molar mass of the structure shown. Values joined by “and” are separate entries in the source; they are usually repeats but may differ in a detail not shown here. Identical values can stand only once. Like-named read-outs stand apart in the source and are kept apart here.

Key:
[1] = test system: Staphylococcus epidermidis EPI2; assay: MIC, standard agar-dilution assay, Staphylococcus epidermidis EPI2; assay type: cell-based; conditions: Staphylococcus epidermidis EPI2; agar dilution; read-out: MIC
Mycoplasma hyopneumoniae = assay: MIC, broth-dilution microtiter test, Mycoplasma hyopneumoniae; assay type: cell-based; conditions: Mesomycoplasma hyopneumoniae; Mycoplasma hyopneumoniae; broth-dilution microtiter; read-out: MIC
Description: (§1) The MIC's in Table X were obtained using conventional broth-dilution microtiter tests.

Mycoplasma gallisepticum [2] = assay: Antimycoplasmal activity in chicks infected with Mycoplasma gallisepticum; assay type: in vivo, two- to three-day-old chicks; conditions: gavage five times, equivalent to 0.5 g/gal; for Number with Antibodies/Number Tested: antibodies to M. gallisepticum; for Number with Antibodies/Number Tested / Number with Air-Sac Lesions/Number Treated: 21 days post-infection
Description: In these tests infections were induced in chicks by injecting 0.2 ml of a broth culture of M. gallisepticum into the abdominal air sac of two- to three-day-old chicks. The compounds were administered by gavage five times at a dose equivalent to 0.5 g/gal (on the day of challenge once prior to and once following the challenge, two times on the next day and once on the third day). Twenty-one days post-infection, the chicks were weighed, a blood sample was taken, and the chicks were sacrificed. The presence or absence of air-sac lesions was recorded.

Streptococcus Group 9960 = assay: MIC, standard agar-dilution assay, Streptococcus Group 9960; assay type: cell-based; conditions: GROUP9960
[3] = test system: Streptococcus pneumoniae Park I; assay: microbe, parasite or virus in culture; assay type: cell-based
[4] = test system: Streptococcus pyogenes C203; assay: In vivo protection of mice experimentally infected with S. pyogenes C203; conditions: Streptococcus pyogenes, mice, doses given 1 and 4 hours post-infection
Description: The C-20 modified derivatives of this invention have shown in vivo antimicrobial activity against experimentally-induced infections in laboratory animals. When two doses of test compound were administered to mice experimentally infected with S. pyogenes C203, the activity observed was measured as an ED50 value [effective dose in mg/kg to protect 50% of the test animals: see Warren Wick, et al., J. Bacteriol. 81, 233-235 (1961)].

[5] = test system: Staphylococcus aureus X1.1; assay: MIC, standard agar-dilution assay, Staphylococcus aureus X1.1; assay type: cell-based; conditions: Staphylococcus aureus, X1.1
[6] = test system: Pasteurella multocida 17E; assay: MIC, broth-dilution microtiter test, Pasteurella multocida 17E; assay type: cell-based
Description: as §1

[7] = test system: Staphylococcus aureus V41; assay: MIC, standard agar-dilution assay, Staphylococcus aureus V41; assay type: cell-based; conditions: Staphylococcus aureus, V41
Mycoplasma synoviae = assay: MIC, broth-dilution microtiter test, Mycoplasma synoviae; assay type: cell-based; conditions: Mycoplasmopsis synoviae; Mycoplasma synoviae; broth-dilution microtiter; read-out: MIC
Description: as §1

[8] = test system: Haemophilus influenzae R252; assay: MIC, standard agar-dilution assay, Haemophilus influenzae R252; assay type: cell-based; conditions: Haemophilus influenzae, R252
Streptococcus bovis 80 = assay: MIC, broth-dilution microtiter test, Streptococcus bovis 80; assay type: cell-based; conditions: Streptococcus equinus
Description: as §1

Mycoplasma hyorhinis = assay: MIC, broth-dilution microtiter test, Mycoplasma hyorhinis; assay type: cell-based; conditions: Mycoplasma
Description: as §1

[9] = test system: Pasteurella hemolytica 22C; assay: MIC, broth-dilution microtiter test, Pasteurella hemolytica 22C; assay type: cell-based
Description: as §1

[10] = test system: Pasteurella multocida 60A; assay: MIC, broth-dilution microtiter test, Pasteurella multocida 60A; assay type: cell-based
Description: as §1

Staphylococcus aureus = assay: MIC, broth-dilution microtiter test, Staphylococcus aureus; assay type: cell-based; conditions: broth-dilution microtiter, read-out: MIC
Description: as §1

Pasteurella multocida [11] = assay: Subcutaneous treatment of Pasteurella multocida-infected chicks; assay type: in vivo, one-day-old chicks
Description: Many of the C-20 modified derivatives of this invention have also shown in vivo antibacterial activity against infections induced by gram-negative bacteria. Tables XII and XIII summarize the results of tests in which illustrative compounds were evaluated against Pasteurella infection in one-day-old chicks. The compounds were administered parenterally or orally after challenge of the chicks with Pasteurella multocida (0.1 ml of a 10^-4 dilution of a twenty-hour tryptose broth culture of an avian P. multocida given subcutaneously). In these tests, unless indicated otherwise, all non-medicated infected chicks died within 24 hours of Pasteurella challenge. In the tests summarized in Table XII the compounds were administered by subcutaneous injection at a dosage of 30 mg/kg, 1 and 4 hours post-challenge of the chicks with P. multocida. In the test summarized in Table XIII the compounds were administered by gavage at 1 and 5 hours post-challenge of the chicks with P. multocida.

[12] = test system: Staphylococcus epidermidis EPI1; assay: MIC, standard agar-dilution assay, Staphylococcus epidermidis EPI1; assay type: cell-based
Mycoplasma gallisepticum [13] = assay: MIC, broth-dilution microtiter test, Mycoplasma gallisepticum; assay type: cell-based; conditions: Mycoplasmoides gallisepticum; Mycoplasma gallisepticum; broth-dilution microtiter; read-out: MIC
Description: as §1

[14] = test system: Haemophilus influenzae Holt; assay: MIC, standard agar-dilution assay, Haemophilus influenzae Holt; assay type: cell-based; conditions: Haemophilus influenzae
[15] = test system: Staphylococcus aureus S13E; assay: MIC, standard agar-dilution assay, Staphylococcus aureus S13E; assay type: cell-based; conditions: Staphylococcus aureus, S13E
[16] = test system: Streptococcus pyogenes C203; assay: MIC, standard agar-dilution assay, Streptococcus pyogenes C203; assay type: cell-based
[17] = test system: Streptococcus Group D X66; assay: MIC, standard agar-dilution assay, Streptococcus Group D X66; assay type: cell-based
[18] = test system: Staphylococcus aureus X400; assay: MIC, standard agar-dilution assay, Staphylococcus aureus X400; assay type: cell-based; conditions: Staphylococcus aureus, X400
Pasteurella multocida [19] = assay: Oral (gavage) treatment of Pasteurella multocida-infected chicks; assay type: in vivo, one-day-old chicks
Method in brief: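 Dosing either by gavage at 1 and 5 h after infection, or subcutaneously at 30 mg/kg at 1 and 4 h after infection. Birds were day-old chicks infected s.c. with 0.1 ml of avian Pasteurella multocida culture (twenty-hour tryptose broth, diluted 10^-4).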

[20] = C203, sc, subcutaneous, read-out: ED50, Subcutaneous
[21] = C203, oral, read-out: ED50, Oral
[22] = Pasteurella multocida 17E, bovine isolate, broth-dilution microtiter, read-out: MIC
[23] = Streptococcus bovis 80, broth-dilution microtiter, read-out: MIC
[24] = Pasteurella hemolytica 22C, broth-dilution microtiter, read-out: MIC
[25] = Pasteurella multocida 60A, avian isolate, broth-dilution microtiter, read-out: MIC
[26] = 30 mg/kg × 2, 1 and 4 hours post-challenge
[27] = Staphylococcus epidermidis, EPI1

## CCC1OC(=O)CC(O)C(C)C(OC2OC(C)C(O)C(N(C)C)C2O)C(CCOC(=O)COc2ccccc2)CC(C)C(=O)C=CC(C)=CC1COC1OC(C)C(O)C(OC)C1OC (stereo not drawn) [Compound 26, 20-DH-20-O-(Phenoxyacetyl)desmycosin]
[1]
  MIC: 0.12 µg/mL (≈ 0.132 µM)
Mycoplasma hyopneumoniae
  MIC: 0.78 µg/mL (≈ 0.859 µM)
Mycoplasma gallisepticum [2]
  Number with Antibodies/Number Tested: 7/9
  Mortality: 1/10
  Number with Air-Sac Lesions/Number Treated: 5/10
Streptococcus Group 9960
  MIC: 0.5 µg/mL (≈ 0.551 µM)
[3]; Streptococcus pneumoniae Park I, agar dilution, read-out: MIC
  MIC: 0.12 µg/mL (≈ 0.132 µM)
[4]; [20]
  ED50: 2.4 mg/kg
[4]; [21]
  ED50: > 25 mg/kg
[5]
  MIC: 0.25 µg/mL (≈ 0.275 µM)
[6]; [22]
  MIC: 6.25 µg/mL (≈ 6.88 µM)
[7]
  MIC: 0.25 µg/mL (≈ 0.275 µM)
Mycoplasma synoviae
  MIC: 1.56 µg/mL (≈ 1.72 µM)
[8]
  MIC: 8 µg/mL (≈ 8.81 µM)
Streptococcus bovis 80; [23]
  MIC: 1.56 µg/mL (≈ 1.72 µM)
Mycoplasma hyorhinis
  MIC: 50 µg/mL (≈ 55.1 µM)
[9]; [24]
  MIC: 12.5 µg/mL (≈ 13.8 µM)
[10]; [25]
  MIC: 6.25 µg/mL (≈ 6.88 µM)
Staphylococcus aureus
  MIC: 0.39 µg/mL (≈ 0.429 µM)
Pasteurella multocida [11]; [26]
  Number of Deaths/Number Treated: 8/10
[12]; [27]
  MIC: 0.25 µg/mL (≈ 0.275 µM)
Mycoplasma gallisepticum [13]
  MIC: < 0.05 µg/mL
[14]
  MIC: 8 µg/mL (≈ 8.81 µM)
[15]
  MIC: 0.25 µg/mL (≈ 0.275 µM)
[16]; Streptococcus pyogenes, C203
  MIC: 0.12 µg/mL (≈ 0.132 µM)
[17]
  MIC: 0.5 µg/mL (≈ 0.551 µM)
[18]
  MIC: 0.5 µg/mL (≈ 0.551 µM)

## CCC1OC(=O)CC(O)C(C)C(OC2OC(C)C(O)C(N(C)C)C2O)C(CC2SCCN2Cc2ccccc2)CC(C)C(=O)C=CC(C)=CC1COC1OC(C)C(O)C(OC)C1OC (stereo not drawn) [Compound 77]
[1]
  MIC: 0.12 µg/mL (≈ 0.13 µM)
Mycoplasma hyopneumoniae
  MIC: 0.19 µg/mL (≈ 0.206 µM)
Streptococcus Group 9960
  MIC: 4 µg/mL (≈ 4.34 µM)
[3]; Streptococcus pneumoniae
  MIC: 1 µg/mL (≈ 1.09 µM)
Pasteurella multocida [19]; 2.0 g/gal equivalent, 11/20 infected nonmedicated chicks died in this test
  Number of Deaths/Number tested: 4/10
[4]; [20]
  ED50: > 10 mg/kg
[4]; [21]
  ED50: 19 mg/kg
[5]
  MIC: 0.25 µg/mL (≈ 0.271 µM)
[6]; Pasteurella multocida, 17E
  MIC: 12.5 µg/mL (≈ 13.6 µM)
[7]
  MIC: 0.25 µg/mL (≈ 0.271 µM)
Mycoplasma synoviae
  MIC: 0.19 µg/mL (≈ 0.206 µM)
[8]
  MIC: 16 µg/mL (≈ 17.4 µM)
Streptococcus bovis 80; 80
  MIC: 3.12 µg/mL (≈ 3.39 µM)
Mycoplasma hyorhinis
  MIC: 6.25 µg/mL (≈ 6.78 µM)
[9]; Pasteurella, 22C
  MIC: 12.5 µg/mL (≈ 13.6 µM)
[10]; Pasteurella multocida, 60A
  MIC: 12.5 µg/mL (≈ 13.6 µM)
Staphylococcus aureus
  MIC: 0.39 µg/mL (≈ 0.423 µM)
Pasteurella multocida [11]; 30 mg/kg × 2, 8/10 and 9/10 of two groups of infected nonmedicated chicks died
  Number of Deaths/Number Treated: 8/10
[12]; [27]
  MIC: 0.25 µg/mL (≈ 0.271 µM)
Mycoplasma gallisepticum [13]
  MIC: 0.09 µg/mL (≈ 0.0977 µM)
[14]
  MIC: 16 µg/mL (≈ 17.4 µM)
[15]
  MIC: 0.25 µg/mL (≈ 0.271 µM)
[16]; Streptococcus pyogenes, C203
  MIC: 0.25 µg/mL (≈ 0.271 µM)
[17]
  MIC: 4 µg/mL (≈ 4.34 µM)
[18]
  MIC: 0.25 µg/mL (≈ 0.271 µM)

## CCC1OC(=O)CC(O)C(C)C(OC2OC(C)C(O)C(N(C)C)C2O)C(CCSc2nnnn2C)CC(C)C(=O)C=CC(C)=CC1COC1OC(C)C(O)C(OC)C1OC (stereo not drawn) [Compound 24, 20-DH-DO-20-[(1-N-Methyltetrazol-5-yl)thio]desmycosin]
Mycoplasma hyopneumoniae
  MIC: 12.5 µg/mL (≈ 14.3 µM)
Mycoplasma gallisepticum [2]
  Number with Antibodies/Number Tested: 10/10
  Mortality: 0/10
  Number with Air-Sac Lesions/Number Treated: 6/10
Streptococcus Group 9960; Streptococcus Group 9960, agar dilution, read-out: MIC
  MIC: 32 µg/mL (≈ 36.7 µM)
[3]; Streptococcus pneumoniae
  MIC: 2 µg/mL (≈ 2.29 µM)
Pasteurella multocida [19]; 1.0 g/gal equivalent
  Number of Deaths/Number tested: 2/9
Pasteurella multocida [19]; 2.0 g/gal equivalent
  Number of Deaths/Number tested: 1/9
[4]; [20]
  ED50: 2.4 mg/kg
[4]; [21]
  ED50: 50 mg/kg
[5]
  MIC: 0.5 µg/mL (≈ 0.573 µM)
[6]; [22]
  MIC: 12.5 µg/mL (≈ 14.3 µM)
[7]
  MIC: 0.5 µg/mL (≈ 0.573 µM)
Mycoplasma synoviae
  MIC: 0.78 µg/mL (≈ 0.894 µM)
Streptococcus bovis 80; [23]
  MIC: 12.5 µg/mL (≈ 14.3 µM)
Mycoplasma hyorhinis
  MIC: 50 µg/mL (≈ 57.3 µM)
[9]; [24]
  MIC: 12.5 µg/mL (≈ 14.3 µM)
[10]; [25]
  MIC: 12.5 µg/mL (≈ 14.3 µM)
Staphylococcus aureus
  MIC: 0.78 µg/mL (≈ 0.894 µM)
Pasteurella multocida [11]; [26]
  Number of Deaths/Number Treated: 2/10 and 0/10
[12]; Staphylococcus epidermidis EPI1, agar dilution, read-out: MIC
  MIC: 0.25 µg/mL (≈ 0.287 µM)
Mycoplasma gallisepticum [13]
  MIC: 1.56 µg/mL (≈ 1.79 µM)
[15]
  MIC: 0.5 µg/mL (≈ 0.573 µM)
[16]; Streptococcus pyogenes C203, agar dilution, read-out: MIC
  MIC: 0.25 µg/mL (≈ 0.287 µM)
[17]; Streptococcus Group D X66, agar dilution, read-out: MIC
  MIC: 16 µg/mL (≈ 18.3 µM)
[18]
  MIC: 1 µg/mL (≈ 1.15 µM)
